{"source": "ChEMBL document CHEMBL4819087", "about": "“Identification and optimization of 3-bromo-N'-(4-hydroxybenzylidene)-4-methylbenzohydrazide derivatives as mTOR inhibitors that induce autophagic cell death and apoptosis in triple-negative breast cancer” (Eur J Med Chem, 2021)", "key": {"[1]": {"target": "T1, Serine/threonine-protein kinase mTOR (Homo sapiens, UniProt P42345)", "experiment": "Inhibition of mTOR (unknown origin)"}, "[2]": {"target": "T1, Serine/threonine-protein kinase mTOR", "experiment": "Inhibition of mTOR in human MDA-MB-231 cells assessed as reduction in phosphorylation of mTOR at Ser2448 residue at 0.5 to 2 uM after 24 hrs by Western blot analysis", "type": "cell-based", "conditions": "dose 0.5-2 µM"}, "[3]": {"target": "T1, Serine/threonine-protein kinase mTOR", "experiment": "Inhibition of mTOR in human MDA-MB-468 cells assessed as reduction in phosphorylation of mTOR at Ser2448 residue at 0.5 to 2 uM after 24 hrs by Western blot analysis", "type": "cell-based", "conditions": "dose 0.5-2 µM"}, "[4]": {"target": "T1, Serine/threonine-protein kinase mTOR", "experiment": "Inhibition of mTOR in human MDA-MB-231 cells assessed as reduction in total 4EBP1 protein level at 0.5 to 2 uM after 24 hrs by Western blot analysis", "type": "cell-based", "conditions": "dose 0.5-2 µM"}, "[5]": {"target": "T1, Serine/threonine-protein kinase mTOR", "experiment": "Inhibition of mTOR in human MDA-MB-231 cells assessed as reduction in AKT protein level at 0.5 to 2 uM after 24 hrs by Western blot analysis", "type": "cell-based", "conditions": "dose 0.5-2 µM"}, "[6]": {"target": "T1, Serine/threonine-protein kinase mTOR", "experiment": "Inhibition of mTOR in human MDA-MB-468 cells assessed as reduction in total 4EBP1 protein level at 0.5 to 2 uM after 24 hrs by Western blot analysis", "type": "cell-based", "conditions": "dose 0.5-2 µM"}, "[7]": {"target": "T1, Serine/threonine-protein kinase mTOR", "experiment": "Inhibition of mTOR in human MDA-MB-468 cells assessed as reduction in P70S6 protein level at 0.5 to 2 uM after 24 hrs by Western blot analysis", "type": "cell-based", "conditions": "dose 0.5-2 µM"}, "[8]": {"target": "T1, Serine/threonine-protein kinase mTOR", "experiment": "Inhibition of mTOR in human MDA-MB-231 cells assessed as reduction in p-AKT(Ser473) protein level at 0.5 to 2 uM after 24 hrs by Western blot analysis", "type": "cell-based", "conditions": "dose 0.5-2 µM"}, "[9]": {"target": "T1, Serine/threonine-protein kinase mTOR", "experiment": "Inhibition of mTOR in human MDA-MB-231 cells assessed as reduction in p70S6K(Thr389) protein level at 0.5 to 2 uM after 24 hrs by Western blot analysis", "type": "cell-based", "conditions": "dose 0.5-2 µM"}, "MDA-MB-468 [10]": {"test_system": "MDA-MB-468", "experiment": "Inhibition of colony formation in human MDA-MB-468 cells measured after 14 days by crystal violet staining based assay", "type": "functional, cell-based", "conditions": "dose 5-10 µM, time 14.0 day"}, "MDA-MB-231 [11]": {"test_system": "MDA-MB-231", "experiment": "Induction of apoptosis in human MDA-MB-231 cells assessed as viable cells at 2.5 uM after 24 hrs by AnnexinV-FITC/PI staining based flow cytometry analysis (reference value: 96.45%)", "type": "functional", "conditions": "read-out: Activity"}, "MDA-MB-231 [12]": {"test_system": "MDA-MB-231", "experiment": "Induction of apoptosis in human MDA-MB-231 cells assessed as necrotic cells at 2.5 uM after 24 hrs by AnnexinV-FITC/PI staining based flow cytometry analysis (reference value: 0.083%)", "type": "functional"}, "MDA-MB-231 [13]": {"test_system": "MDA-MB-231", "experiment": "Induction of apoptosis in human MDA-MB-231 cells assessed as necrotic cells at 5 uM after 24 hrs by AnnexinV-FITC/PI staining based flow cytometry analysis (reference value: 0.083%)", "type": "functional"}, "MDA-MB-231 [14]": {"test_system": "MDA-MB-231", "experiment": "Induction of apoptosis in human MDA-MB-231 cells assessed as viable cells at 10 uM after 24 hrs by AnnexinV-FITC/PI staining based flow cytometry analysis (reference value: 95.6 to 96.45%)", "type": "functional", "conditions": "read-out: Activity"}, "MDA-MB-231 [15]": {"test_system": "MDA-MB-231", "experiment": "Induction of apoptosis in human MDA-MB-231 cells assessed as early apoptotic cells at 10 uM after 24 hrs by AnnexinV-FITC/PI staining based flow cytometry analysis (reference value: 2.43 to 2.63%)", "type": "functional"}, "MDA-MB-468 [16]": {"test_system": "MDA-MB-468", "experiment": "Induction of apoptosis in human MDA-MB-468 cells assessed as viable cells at 2.5 uM after 24 hrs by AnnexinV-FITC/PI staining based flow cytometry analysis (reference value: 95.1%)", "type": "functional", "conditions": "read-out: Activity"}, "MDA-MB-468 [17]": {"test_system": "MDA-MB-468", "experiment": "Induction of apoptosis in human MDA-MB-468 cells assessed as early apoptic cells at 2.5 uM after 24 hrs by AnnexinV-FITC/PI staining based flow cytometry analysis (reference value: 0.51%)", "type": "functional"}, "MDA-MB-468 [18]": {"test_system": "MDA-MB-468", "experiment": "Induction of apoptosis in human MDA-MB-468 cells assessed as late apoptic cells at 2.5 uM after 24 hrs by AnnexinV-FITC/PI staining based flow cytometry analysis (reference value: 2.84%)", "type": "functional"}, "MDA-MB-468 [19]": {"test_system": "MDA-MB-468", "experiment": "Induction of apoptosis in human MDA-MB-468 cells assessed as early apoptic cells at 5 uM after 24 hrs by AnnexinV-FITC/PI staining based flow cytometry analysis (reference value: 0.51%)", "type": "functional"}, "MDA-MB-468 [20]": {"test_system": "MDA-MB-468", "experiment": "Induction of apoptosis in human MDA-MB-468 cells assessed as viable cells at 10 uM after 24 hrs by AnnexinV-FITC/PI staining based flow cytometry analysis (reference value: 95.1 to 96.3%)", "type": "functional", "conditions": "read-out: Activity"}, "MDA-MB-468 [21]": {"test_system": "MDA-MB-468", "experiment": "Induction of apoptosis in human MDA-MB-468 cells assessed as early apoptic cells at 10 uM after 24 hrs by AnnexinV-FITC/PI staining based flow cytometry analysis (reference value: 0.51 to 2.55%)", "type": "functional"}, "MDA-MB-468 [22]": {"test_system": "MDA-MB-468", "experiment": "Induction of apoptosis in human MDA-MB-468 cells assessed as late apoptic cells at 10 uM after 24 hrs by AnnexinV-FITC/PI staining based flow cytometry analysis (reference value: 0.87 to 2.84%)", "type": "functional"}, "MDA-MB-231 [23]": {"test_system": "MDA-MB-231", "experiment": "Induction of apoptosis in human MDA-MB-231 cells assessed as increase in Bax level at 2.5 to 10 uM incubated for 24 hrs by western blot analysis", "type": "functional, cell-based", "conditions": "dose 2.5-10 µM"}, "MDA-MB-231 [24]": {"test_system": "MDA-MB-231", "experiment": "Induction of apoptosis in human MDA-MB-231 cells assessed as decrease in Bcl2 level at 2.5 to 10 uM incubated for 24 hrs by western blot analysis", "type": "functional, cell-based", "conditions": "dose 2.5-10 µM"}, "MDA-MB-231 [25]": {"test_system": "MDA-MB-231", "experiment": "Induction of autophagy in human MDA-MB-231 cells assessed as reduction in p62 protein level at 2.5 to 10 uM incubated for 24 hrs by Western blot analysis", "type": "functional, cell-based", "conditions": "dose 2.5-10 µM"}, "MDA-MB-231 [26]": {"test_system": "MDA-MB-231", "experiment": "Induction of autophagy in human MDA-MB-231 cells assessed as increase in LC3-II protein level at 2.5 to 10 uM incubated for 24 hrs by Western blot analysis", "type": "functional, cell-based", "conditions": "dose 2.5-10 µM"}, "MDA-MB-231 [27]": {"test_system": "MDA-MB-231", "experiment": "Induction of autophagy in human MDA-MB-231 cells assessed as increase in Beclin-1 protein level at 2.5 to 10 uM incubated for 24 hrs by Western blot analysis", "type": "functional, cell-based", "conditions": "dose 2.5-10 µM"}, "MDA-MB-468 [28]": {"test_system": "MDA-MB-468", "experiment": "Induction of autophagy in human MDA-MB-468 cells assessed as increase in Beclin-1 protein level at 2.5 to 10 uM incubated for 24 hrs by Western blot analysis", "type": "functional, cell-based", "conditions": "dose 2.5-10 µM"}, "MDA-MB-468 [29]": {"test_system": "MDA-MB-468", "experiment": "Inhibition of colony formation in human MDA-MB-468 cells at 10 uM incubated for 14 days in presence of autophagy inhibitor, 3-methyladenine by crystal violet staining based analysis", "type": "functional, cell-based", "conditions": "time 14.0 day"}, "MDA-MB-468 [30]": {"test_system": "MDA-MB-468", "experiment": "(§1) Induction of apoptosis in human MDA-MB-468 cells assessed as early apoptotic cells at 10 uM pretreated for 1 hr with autophagy inhibitor, 3-methyladenine followed by incubation with compound and measured after 24 hrs by Annexin V-FITC/propidium iodide staining based flow cytometry (reference value: 4.08%)", "type": "functional", "parameters": "scale not given: the % may be the effect or the level left"}, "MDA-MB-468 [31]": {"test_system": "MDA-MB-468", "experiment": "as §1, with “late” for “early”, “1.94%)” for “4.08%)”", "type": "functional", "parameters": "scale not given: the % may be the effect or the level left"}, "MDA-MB-231 [32]": {"test_system": "MDA-MB-231", "experiment": "Induction of apoptosis in human MDA-MB-231 cells assessed as viable cells at 10 uM pretreated with autophagy inhibitor, 3-methyladenine for 1 hr followed by incubation with compound and measured after 24 hrs by Annexin V-FITC/propidium iodide staining based flow cytometry (reference value: 92.7%)", "type": "functional", "conditions": "read-out: Activity"}, "A549": {"test_system": "A549", "experiment": "cells", "conditions": "Homo sapiens, A549, 24 h", "description": "Antiproliferative activity against human A549 cells assessed as reduction in cell viability incubated for 24 hrs by MTT assay"}}, "note": "Activity calls are given as the source filed them. No cut-off for these calls is given here.", "data": [{"compound": "C/C(=N\\NC(=O)c1cccc(Br)c1)c1ccc(C(=O)Nc2nc3ccccc3[nH]2)cc1", "values": [{"measurement": "IC50", "setting": "[1]", "value": 0.304, "unit": "µM"}, {"measurement": "inhibition", "setting": "[2]", "value": "Active"}, {"measurement": "inhibition", "setting": "[3]", "value": "Active"}, {"measurement": "inhibition", "setting": "[4]", "value": "Active"}, {"measurement": "inhibition", "setting": "[5]", "value": "Active"}, {"measurement": "inhibition", "setting": "[6]", "value": "Active"}, {"measurement": "inhibition", "setting": "[7]", "value": "Active"}, {"measurement": "inhibition", "setting": "[8]", "value": "Active"}, {"measurement": "inhibition", "setting": "[9]", "value": "Active"}, {"measurement": "inhibition", "setting": "MDA-MB-468 [10]", "value": "Dose-Dependent Effect"}, {"measurement": "viability at 2.5 µM", "setting": "MDA-MB-231 [11]", "value": 90.1, "unit": "%"}, {"measurement": "Activity", "setting": "MDA-MB-231 [12]", "value": 0.076, "unit": "%"}, {"measurement": "Activity", "setting": "MDA-MB-231 [13]", "value": 0.099, "unit": "%"}, {"measurement": "viability at 10 µM", "setting": "MDA-MB-231 [14]", "value": 70.2, "unit": "%"}, {"measurement": "Activity", "setting": "MDA-MB-231 [15]", "value": 12.9, "unit": "%"}, {"measurement": "viability at 2.5 µM", "setting": "MDA-MB-468 [16]", "value": 89.8, "unit": "%"}, {"measurement": "Activity", "setting": "MDA-MB-468 [17]", "value": 3.35, "unit": "%"}, {"measurement": "Activity", "setting": "MDA-MB-468 [18]", "value": 4.96, "unit": "%"}, {"measurement": "Activity", "setting": "MDA-MB-468 [19]", "value": 5.57, "unit": "%"}, {"measurement": "viability at 10 µM", "setting": "MDA-MB-468 [20]", "value": 60.5, "unit": "%"}, {"measurement": "Activity", "setting": "MDA-MB-468 [21]", "value": 12, "unit": "%"}, {"measurement": "Activity", "setting": "MDA-MB-468 [22]", "value": 12.3, "unit": "%"}, {"measurement": "Activity", "setting": "MDA-MB-231 [23]", "value": "Active"}, {"measurement": "Activity", "setting": "MDA-MB-231 [24]", "value": "Active"}, {"measurement": "Activity", "setting": "MDA-MB-231 [25]", "value": "Active"}, {"measurement": "Activity", "setting": "MDA-MB-231 [26]", "value": "Active"}, {"measurement": "Activity", "setting": "MDA-MB-231 [27]", "value": "Active"}, {"measurement": "Activity", "setting": "MDA-MB-468 [28]", "value": "Active"}, {"measurement": "inhibition", "setting": "MDA-MB-468 [29]", "value": "Active"}, {"measurement": "Activity", "setting": "MDA-MB-468 [30]", "value": 7.07, "unit": "%"}, {"measurement": "Activity", "setting": "MDA-MB-468 [31]", "value": 8.98, "unit": "%"}, {"measurement": "viability at 10 µM", "setting": "MDA-MB-231 [32]", "value": 86.3, "unit": "%"}, {"measurement": "IC50", "setting": "A549", "value": 6.48, "unit": "µM"}]}]}
